Test system: Micrococcus flavus ATCC 10240, Sarcina lutea ATCC 9341 and Staph. epidermidis ATCC 12228
Test: antibacterial activity compared with tetracycline, statement for three organisms
Assay type: cell-based
Settings: strongest activity against M. flavus ATCC 10240, Sarcina lutea ATCC 9341, Staph. epidermidis ATCC 12228

Row | Compound | activity relative to that of tetracycline
1 | Cc1c2c(c(O)c3c(O)cccc13)C(=O)C1(O)C(=O)C(C(N)=O)=C(O)C(NS(=O)(=O)c3ccc(F)cc3)C1C2 (stereo not shown) [Compound 3, 4-p-fluorbenzenesulfonamido-5a,6-anhydrotetracycline] | considerably superior or equal to that of tetracycline
2 | Cc1c2c(c(O)c3c(O)cccc13)C(=O)C1(O)C(=O)C(C(N)=O)=C(O)C(NS(=O)(=O)c3ccc(Br)cc3)C1C2 (stereo not shown) [Compound 4, 4-p-bromobenzenesulfonamido-5a,6-anhydrotetracycline] | considerably superior or equal to that of tetracycline
3 | CCc1ccc(S(=O)(=O)NC2C(O)=C(C(N)=O)C(=O)C3(O)C(=O)c4c(c(C)c5cccc(O)c5c4O)CC23)cc1 (stereo not shown) [Compound 6, 4-p-ethylbenzenesulfonamido-5a,6-anhydrotetracycline] | considerably superior or equal to that of tetracycline
4 | Cc1ccc(S(=O)(=O)NC2C(O)=C(C(N)=O)C(=O)C3(O)C(=O)c4c(c(C)c5cccc(O)c5c4O)CC23)cc1 (stereo not shown) [Compound 2, 4-p-toluene-sulfonamido-5a,6-anhydrotetracycline] | considerably superior or equal to that of tetracycline

From patent US4160783A, “4-Dedimethylamino-4-arylsulfonamido-5a,6-anhydrotetracyclines” (PLIVA Pharmaceutical and Chemical Works, priority 1976, dated 1979)
